# Experimental data: patent US11999758B2, “Inhibitors of the YAP/TAZ-TEAD interaction and their use in the treatment of cancer” (INVENTIVA, priority 2018, dated 2024)
# pIC50: −log10 of the molar value.
# Key:
# YAP-TEAD interaction = biological target: T1, YAP-TEAD interaction (Homo sapiens, UniProt P28347); test: Cell-based TEAD-GAL4 transactivation assay (luciferase reporter); settings: HEK293 cells transfected with TEAD1-Gal4, YAP mutant (S127A, S397A) and luciferase reporter, compounds 0.1 μM to 30 μM; for Emax: HEK293, 24 h, read-out: TEAD-GAL4 Transactivation activity Max Act
# T1 construct: expressed in transfected cells; host or cells: HEK293 GripTite 293 MSR (Invitrogen R795-07)
# How it was run: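 HEK293 cells transiently transfected with Gal4-DBD–full-length human TEAD1, full-length YAP S127A/S397A (YAP/TEAD ratio 10) and a 5×GAL4-RE TK-luciferase reporter. Six hours later, compounds added semi-log from 0.1 to 30 μM (DMSO 0.5% control) for 24 h. Luciferase read; IC50 from 3-parameter fit.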
# T1 sequence (P28347 whole entry, the tested form may be a part): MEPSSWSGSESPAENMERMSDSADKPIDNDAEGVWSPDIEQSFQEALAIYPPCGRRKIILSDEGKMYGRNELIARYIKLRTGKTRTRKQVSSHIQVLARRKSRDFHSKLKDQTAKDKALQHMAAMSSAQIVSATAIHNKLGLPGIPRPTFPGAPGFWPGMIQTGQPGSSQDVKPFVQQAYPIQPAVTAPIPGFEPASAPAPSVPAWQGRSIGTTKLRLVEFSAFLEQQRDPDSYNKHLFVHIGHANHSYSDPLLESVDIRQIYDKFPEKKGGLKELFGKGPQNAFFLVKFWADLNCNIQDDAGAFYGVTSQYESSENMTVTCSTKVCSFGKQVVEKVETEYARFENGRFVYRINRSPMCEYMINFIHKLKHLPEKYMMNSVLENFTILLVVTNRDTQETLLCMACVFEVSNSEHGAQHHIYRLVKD
Compound,Emax (YAP-TEAD interaction),pIC50 (YAP-TEAD interaction; 24 h),melting point,TEAD-GAL4 Transactivation activity Max Act (YAP-TEAD interaction; 24 h)
"COCCN(/N=C/c1ccc2c(c1)COB2O)C1=NS(=O)(=O)c2ccccc21 [Ex 24, N-[(E)-(1-hydroxy-3H-2,1-benzoxaborol-5-yl)methyleneamino]-N-(2-methoxyethyl)-1,1-dioxo-1,2-benzothiazol-3-amine]",76%,5.28,227 °C,
"Cc1ccc2c(c1)S(=O)(=O)N=C2N(CC(C)C)/N=C/c1ccc2c(c1)COB2O [Ex 31, N-[(E)-(1-hydroxy-3H-2,1-benzoxaborol-5-yl)methyleneamino]-N-isobutyl-6-methyl-1,1-dioxo-1,2-benzothiazol-3-amine]",90%,5.38,182 °C,
"CN(/N=C/c1ccc2c(c1)COB2O)c1ncnc2c1[nH]c(=O)n2C12CC(C1)C2 [Ex110, 9-(3-bicyclo[1.1.1]pentanyl)-6-[[(E)-(1-hydroxy-3H-2,1-benzoxaborol-5-yl)methyleneamino]-methyl-amino]-7H-purin-8-one]",81%,5.62,259 to 270 °C,
"CC1CCC(c2ccc3c(c2)COB3O)=NN1c1ncnc2c3c(sc12)CCCC3 (stereo not shown) [Ex122, 4-[6-(1-hydroxy-3H-2,1-benzoxaborol-5-yl)-3-methyl-4,5-dihydro-3H-pyridazin-2-yl]-6,7,8,9-tetrahydrobenzothiopheno[3,2-d]pyrimidine]",94%,6.09,,
"CC(C)CN(/N=C/c1ccc(B(O)O)cc1)C1=NS(=O)(=O)c2ccccc21 [Ex 8, [4-[(E)-[(1,1-dioxo-1,2-benzothiazol-3-yl)-isobutyl-hydrazono]methyl]-phenyl] boronic acid]",74%,,,
"COc1cc(/C=N/N(CC(C)C)c2ncnc3cc(C)sc23)ccc1B(O)O [Ex69, [4-[(E)-[isobutyl-(6-methylthieno[3,2-d]pyrimidin-4-yl)hydrazono]methyl]-2-methoxy-phenyl]boronic acid]",92%,5.63,,
"COc1ccc2c(c1)C(N(C)/N=C/c1ccc3c(c1)COB3O)=NS2(=O)=O [Ex 37, N-[(E)-(1-hydroxy-3H-2,1-benzoxaborol-5-yl)methyleneamino]-5-methoxy-N-methyl-1,1-dioxo-1,2-benzothiazol-3-amine]",92%,5.34,,
"COc1cc(/C=N/N(C)c2cc(C)cnn2)ccc1B(O)O [Ex 59, [2-methoxy-4-[(E)-[methyl-(5-methylpyridazin-3-yl)hydrazono]methyl]-phenyl] boronic acid]",71%,,,
"CCN(/N=C/c1ccc2c(c1)COB2O)c1nc(C)nc2ccsc12 [Ex 45, N-ethyl-N-[(E)-(1-hydroxy-3H-2,1-benzoxaborol-5-yl)methyleneamino]-2-methyl-thieno[3,2-d]pyrimidin-4-amine]",63%,5.99,,
"CC(C)CN(/N=C/c1ccc2c(c1)CCOB2O)C1=NS(=O)(=O)c2ccccc21 [Ex 46, N-[(E)-(1-hydroxy-3,4-dihydro-2,1-benzoxaborinin-6-yl)methyleneamino]-N-isobutyl-1,1-dioxo-1,2-benzothiazol-3-amine]",72%,,,
"CN(/N=C/c1ccc2c(c1)COB2O)c1ncnc2c1CC(=O)N2C1CCC1 [Ex111, 7-cyclobutyl-4-[[(E)-(1-hydroxy-3H-2,1-benzoxaborol-5-yl)methyleneamino]-methyl-amino]-5H-pyrrolo[2,3-d]pyrimidin-6-one]",83%,5.80,,
"COc1cc(C2=NN(c3ncnc4c3ccn4C)C(C)CC2)ccc1B(O)O (stereo not shown) [Ex73, [2-methoxy-4-[3-methyl-2-(7-methylpyrrolo[2,3-d]pyrimidin-4-yl)-4,5-dihydro-3H-pyridazin-6-yl]phenyl]boronic acid]",88%,5.65,,
"COCCN(/N=C/c1ccc(B(O)O)c(OC)c1)c1ncnc2ccsc12 [Ex70, [2-methoxy-4-[(E)-[2-methoxyethyl(thieno[3,2-d]pyrimidin-4-yl) hydrazono]methyl]phenyl]boronic acid]",87%,5.73,,
"Cc1csc2c(N3N=C(c4ccc5c(c4)COB5O)CCC3C)ncnc12 (single isomer, unassigned; (+)) [Ex119, (+) 4-[6-(1-hydroxy-3H-2,1-benzoxaborol-5-yl)-3-methyl-4,5-dihydro-3H-pyridazin-2-yl]-7-methyl-thieno[3,2-d]pyrimidine]",77%,6.37,,
"CN(/N=C/c1ccc2c(c1)COB2O)c1ncnc2c1[nH]c(=O)n2C1CCC1 [Ex107, 9-cyclobutyl-6-[[(E)-(1-hydroxy-3H-2,1-benzoxaborol-5-yl)methyleneamino]-methyl-amino]-7H-purin-8-one]",87%,5.78,,
"COc1cc(C2=NN(c3ncnc4cc(F)ccc34)CC(C)O2)ccc1B(O)O (stereo not shown) [Ex74, [4-[4-(7-fluoroquinazolin-4-yl)-6-methyl-5,6-dihydro-1,3,4-oxadiazin-2-yl]-2-methoxy-phenyl]boronic acid]",83%,5.63,,
"COCCN(/N=C/c1ccc(B(O)O)c(OC)c1)C1=NS(=O)(=O)c2ccccc21 [Ex 5, [4-[(E)-[(1,1-dioxo-1,2-benzothiazol-3-yl)-(2-methoxyethyl)-hydrazono]methyl]-2-methoxy-phenyl]boronic acid]",67%,5.15,,
"CC1CCC(c2ccc3c(c2)COB3O)=NN1c1ncnc2ccsc12 (stereo not shown) [Ex121, 4-[6-(1-hydroxy-3H-2,1-benzoxaborol-5-yl)-3-methyl-4,5-dihydro-3H-pyridazin-2-yl]thieno[3,2-d]pyrimidine]",80%,6.14,,
"Cc1csc2c(N3N=C(c4ccc5c(c4)COB5O)CCC3C)ncnc12 (single isomer, unassigned; (-)) [Ex120, (−) 4-[6-(1-hydroxy-3H-2,1-benzoxaborol-5-yl)-3-methyl-4,5-dihydro-3H-pyridazin-2-yl]-7-methyl-thieno[3,2-d]pyrimidine]",,6.30,,84%

# The next lines start with the values.
Emax (YAP-TEAD interaction),pIC50 (YAP-TEAD interaction; 24 h),melting point,TEAD-GAL4 Transactivation activity Max Act (YAP-TEAD interaction; 24 h),Compound
68%,5.94,237 to 267 °C,,"COc1cc(/C=N/N(C)c2ncnc3c(C)csc23)ccc1B(O)O [Ex71, [2-methoxy-4-[(E)-[methyl-(7-methylthieno[3,2-d]pyrimidin-4-yl) hydrazono]methyl]phenyl]boronic acid]"
91%,6.77,214 to 246 °C,,"CSc1nc2ncnc(N(CC(C)C)/N=C/c3ccc4c(c3)COB4O)c2s1 [Ex92, N-[(E)-(1-hydroxy-3H-2,1-benzoxaborol-5-yl)methyleneamino]-N-isobutyl-2-methylsulfanyl-thiazolo[4,5-d]pyrimidin-7-amine]"
75%,5.65,,,"CCN(/N=C/c1ccc2c(c1)COB2O)c1ncnc2cn[nH]c12 [Ex78, N-ethyl-N-[(E)-(1-hydroxy-3H-2,1-benzoxaborol-5-yl)methyleneamino]-1H-pyrazolo[4,3-d]pyrimidin-7-amine]"
79%,5.73,,,"CCCNC(=O)c1csc2c(N(CC)/N=C/c3ccc4c(c3)COB4O)ncnc12 [Ex112, 4-[ethyl-[(E)-(1-hydroxy-3H-2,1-benzoxaborol-5-yl)methyleneamino]-amino]-N-propyl-thieno[3,2-d]pyrimidine-7-carboxamide]"
83%,5.76,,,"CCCCN(CCCC)C(=O)c1csc2c(N(CC)/N=C/c3ccc4c(c3)COB4O)ncnc12 [Ex114, N,N-dibutyl-4-[ethyl-[(E)-(1-hydroxy-3H-2,1-benzoxaborol-5-yl)methyleneamino]amino]thieno[3,2-d]pyrimidine-7-carboxamide]"
81%,6.19,,,"CCN(/N=C/c1ccc2c(c1)COB2O)c1ncnc2[nH]ncc12 [Ex86, N-ethyl-N-[(E)-(1-hydroxy-3H-2,1-benzoxaborol-5-yl)methyleneamino]-1H-pyrazolo[3,4-d]pyrimidin-4-amine]"
81%,6.21,,,"CCN(/N=C/c1ccc2c(c1)COB2O)c1ncnc2c1ccn2CC [Ex85, N,7-diethyl-N-[(E)-(1-hydroxy-3H-2,1-benzoxaborol-5-yl)methyleneamino]pyrrolo [2,3-d]pyrimidin-4-amine]"
81%,6.29,,,"CCN(/N=C/c1ccc2c(c1)COB2O)c1ncnc2ccsc12 [Ex 38, N-ethyl-N-[(E)-(1-hydroxy-3H-2,1-benzoxaborol-5-yl)methyleneamino]-thieno[3,2-d]pyrimidin-4-amine]"
87%,5.87,,,"CC(C)CN(/N=C/c1ccc2c(c1)COB2O)c1ncnc2ccsc12 [Ex 35, N-[(E)-(1-hydroxy-3H-2,1-benzoxaborol-5-yl)methyleneamino]-N-isobutyl-thieno [3,2-d]pyrimidin-4-amine]"
83%,6.29,,,"CCc1csc2c(N(C)/N=C/c3ccc4c(c3)COB4O)ncnc12 [Ex105, 7-ethyl-N-[(E)-(1-hydroxy-3H-2,1-benzoxaborol-5-yl)methyleneamino]-N-methyl-thieno[3,2-d]pyrimidin-4-amine]"
86%,5.71,,,"CCN(/N=C/c1ccc2c(c1)COB2O)c1ncnc2c(C(=O)NCCCCOC)csc12 [Ex116, 4-[ethyl-[(E)-(1-hydroxy-3H-2,1-benzoxaborol-5-yl)methyleneamino]-amino]-N-(4-methoxybutyl)thieno[3,2-d]pyrimidine-7-carboxamide]"
83%,6.15,,,"COCc1csc2c(N(C)/N=C/c3ccc4c(c3)COB4O)ncnc12 [Ex126, N-[(E)-(1-hydroxy-3H-2,1-benzoxaborol-5-yl)methyleneamino]-7-(methoxymethyl)-N-methyl-thieno[3,2-d]pyrimidin-4-amine]"
